Test results taken from patent US6787552B2, “PPAR delta activators” (Nippon Chemiphar Co., Ltd., priority 2000, dated 2004).

Tests used:
PPARα = biological target: T1, PPARα (Homo sapiens, UniProt Q07869); test: PPARα transactivation activity (GAL4-hPPARα LBD / UASx4-TK-LUC reporter in CV-1 cells); type: cell-based; conditions: for Emax: CV-1, in the manner as described in Example 9, Table 26, read-out: PPARα (PPAR activating power); for PPARα transactivation activity: a relative value (control = 100%): compound at 10^−5 M, CV-1 cells, Table 25
T1 construct: Receptor expression plasmid (GAL4-hPPARα, LBD GAL4-hPPARγ LBD, GAL4-hPPARδ LBD); expressed in transfected cells; host or cells: CV-1 cells
T1 sequence (Q07869 239-466 limits assumed): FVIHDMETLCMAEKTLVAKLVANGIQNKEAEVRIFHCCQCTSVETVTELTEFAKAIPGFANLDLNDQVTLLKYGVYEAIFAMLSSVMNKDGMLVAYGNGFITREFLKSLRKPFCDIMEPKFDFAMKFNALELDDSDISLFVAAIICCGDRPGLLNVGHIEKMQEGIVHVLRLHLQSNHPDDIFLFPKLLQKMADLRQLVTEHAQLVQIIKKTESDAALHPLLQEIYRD
Method: (§1) (1) Measurement of PPARα,γ,δ Transactivation Activity
(§2) PPARα,γ,δ transactivation activity of each compound [Examples 1-6 and known PPARδ agonist (L-16504: Berger, J., et al. (1999), J. Biol. Chem., 274:6718-6725)] was measured in the manner described below.
(§3) CV-1 was obtained from Tohoku University Aging Medical Laboratory, Medical Cell Collection Center. All test compounds were dissolved in dimethylsulfoxide (DMSO) to give a test sample of 0.1% concentration.
(§4) Receptor expression plasmid (GAL4-hPPARα, LBD GAL4-hPPARγ LBD, GAL4-hPPARδ LBD), Reporter plasmid (UASx4-TK-LUC), and β-galactosidase expression plasmid (βGAL) similar to Kliewer, S. A., et al., ((1992) Nature, 358:771-774) were employed.
(§5) CV-1 cells were seeded in 24 well culture plates at 2×10^5 cells per well, and cultured for 24 hours using 4%-fetal bovine serum(FBS)-added OPTI-MEM I Reduced Serum Medium (Life Technologies, 500 μL/well). Subsequently, the cells were washed with non serum-added OPTI-MEM. To the washed cells were added DNA-containing solution [the following components were contained in the one well solution (250 μl): 0.03 μg of GAL4-hPPARδ LBD, 0.25 μg of UASx4-TK-LUC, 0.35 μg of βGAL, and 2 μL of lipofection reagent, DMRIE-C (Life Technologies). These components were dissolved in OPTI-MEM and allowed to stand for 30 minutes at room temperature]. The cells were incubated for 5 hours at 37° C.
(§6) The cells were then incubated for 40 hours in 500 μL of fresh OPTI-MEM containing 4% FBS and the test compound (dissolved in 100% DMSO to reach a final concentration: 10^−4M or 10^−5M).
(§7) The culture medium was removed and the cells were washed with PBS twice. Cell lysates were produced using a solubilizing buffer (25 mM Tris-PO4 (pH 7.8), 15%v/v glycerol, 2% CHAPS, 1% Lecithin, 1% BSA, 4 mM EGTA (pH 8.0), 8 mM MgCl2, 1 mM DTT). A portion (20 μL) of the solution was transferred onto a 96-well plate. Subsequently, 100 μL of luciferase substrate solution (Piccagene: available from Nippon Gene Co., Ltd.) was added, and a luminous intensity per one sec. (luciferase activity) was measured by means of MLR-100 type Microluminoreader (available from Corona Electrics Co., Ltd.). Further, the activity caused by […] incorporation which was incorporated into the cells simultaneously with the incorporation of the luciferase gene was measured, for correcting variation of luciferase activity by the addition of the compound, utilizing the transfection efficiency of the incorporated gene. β-Galactosidase activity was measured by the following method: 50 μL of the solubilized sample was placed on another 96-well plate; 10 μL of ONPG (2-nitrophenyl-β-galactopyranoside) solution was added; incubation was carried out for 5 minutes at room temperature; 50 μL of a reaction stopping solution (1M sodium carbonate solution) was added; and the absorbance at 414 nm was measured.

PPARγ = biological target: T2, PPARγ (Homo sapiens, UniProt P37231); test: PPARγ transactivation activity (GAL4-hPPARγ LBD / UASx4-TK-LUC reporter in CV-1 cells); type: cell-based; conditions: for Emax: CV-1, in the manner as described in Example 9, Table 26, read-out: PPARγ (PPAR activating power); for PPARγ transactivation activity: a relative value (control = 100%): compound at 10^−5 M, CV-1 cells, Table 25
T2 construct: Receptor expression plasmid (GAL4-hPPARα, LBD GAL4-hPPARγ LBD, GAL4-hPPARδ LBD); expressed in transfected cells; host or cells: CV-1 cells
T2 sequence (P37231 238-503 limits assumed): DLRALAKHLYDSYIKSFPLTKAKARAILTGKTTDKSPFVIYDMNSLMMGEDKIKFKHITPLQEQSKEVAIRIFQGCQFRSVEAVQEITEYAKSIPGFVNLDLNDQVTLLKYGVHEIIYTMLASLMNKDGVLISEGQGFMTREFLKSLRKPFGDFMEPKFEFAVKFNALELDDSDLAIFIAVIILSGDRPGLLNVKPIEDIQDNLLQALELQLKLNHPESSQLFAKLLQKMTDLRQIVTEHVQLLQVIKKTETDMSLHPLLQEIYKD
Method: In the same manner, relative ligand activities to PPARδ and γ transactivation activitis are calculated (see the below-mentioned Example 9).
as §1, §2, §3, §4, §5, §6, §7

PPARδ = biological target: T3, PPARδ (Homo sapiens, UniProt Q03181); test: PPARδ transactivation activity (GAL4-hPPARδ LBD / UASx4-TK-LUC reporter in CV-1 cells); type: cell-based; conditions: for Emax: CV-1, 40 h, in the manner as described in Example 9, Table 26, read-out: PPARδ (PPAR activating power); for PPARδ transactivation activity: a relative value (control = 100%): compound at 10^−5 M, Table 25
T3 construct: A chimeric receptor expression plasmid (GAL4-hPPARδ LBD); expressed in transfected cells; host or cells: CV-1 cells
T3 sequence (Q03181 211-439 limits assumed): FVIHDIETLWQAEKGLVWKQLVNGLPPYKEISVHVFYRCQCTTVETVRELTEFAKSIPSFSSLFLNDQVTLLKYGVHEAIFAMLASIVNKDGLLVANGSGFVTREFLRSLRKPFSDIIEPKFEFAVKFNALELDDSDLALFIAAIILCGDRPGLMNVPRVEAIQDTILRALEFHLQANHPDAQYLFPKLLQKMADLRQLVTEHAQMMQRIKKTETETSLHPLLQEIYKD
Method: A chimeric receptor expression plasmid (GAL4-hPPARδ LBD), a reporter plasmid (UASx4-TK-LUC) and β-galactosidase (β-GAL) are transfected into CV-1 cells by utilizing a lipofection reagent DMRIE-C (Life Technologies).
as §1
CV-1 was obtained from Tohoku University Aging Medical Laboratory, Medical Cell Collection Center.
as §5, §6, §7

SMILES	Emax (PPARα) [%]	Emax (PPARγ) [%]	Emax (PPARδ) [%]	melting point [°C]	activity to PPARδ relative to activity to PPARα and γ (selectivity) (PPARδ; CV-1 cells, GAL4-hPPAR LBD reporter, relative activities vs control reagents)	PPARδ activating effect (transactivation activity) as compared with L-165041 (PPARδ; CV-1 cells, GAL4-hPPARδ LBD, 40 hours incubation, luciferase activity with 10^-4 M L-165041 set to 100%)	PPARα transactivation activity: a relative value (control = 100%) (PPARα) [%]	PPARγ transactivation activity: a relative value (control = 100%) (PPARγ) [%]	PPARδ transactivation activity: a relative value (control = 100%) (PPARδ; CV-1 cells) [%]
CC(C)c1oc(-c2cc3ccccc3o2)nc1CCC(=O)c1ccc(OC(C)(C)C(=O)O)cc1 [Example 7-7, 2-[4-[3-[2-(2-Benzofuranyl)-5-isopropyl-4-oxazolyl]propionyl]phenyloxy]-2-methylpropionic acid]	1	9	65 ± 2	135 to 139					
CC(C)c1oc(-c2ccc(Cl)cc2Cl)nc1CCC(=O)c1ccc(OC(C)(C)C(=O)O)cc1 [Example 7-4, 2-[4-[3-[2-(2,4-Dichlorophenyl)-5-isopropyl-4-oxazolyl]propionyl]phenyloxy]-2-methylpropionic acid]	1	2	86 ± 10	100 to 105	higher				
CC(C)c1oc(-c2cccc(Cl)c2Cl)nc1CCC(=O)c1ccc(OC(C)(C)C(=O)O)cc1 [Example 7-6, 2-[4-[3-[2-(2,3-Dichlorophenyl)-5-isopropyl-4-oxazolyl]propionyl]phenyloxy]-2-methylpropionic acid]	8	19	96 ± 13			same or higher			
CCC(C)(Oc1ccc(C(=O)CCc2nc(-c3ccc(Cl)cc3Cl)oc2C(C)C)cc1)C(=O)O (centres unmarked) [Example 7-5, 2-[4-[3-[2-(2,4-Dichlorophenyl)-5-isopropyl-4-oxazolyl]propionyl]phenyloxy]-2-methylbutyric acid]	1	2	58 ± 14						
CCCc1oc(-c2ccc(Cl)cc2)nc1CCC(=O)c1ccc(OC(C)(C)C(=O)O)cc1 [Example 2, 2-[4-[3-[2-(4-Chlorophenyl)-5-propyl-4-oxazolyl]propionyl]phenyloxy]-2-methylpropionic acid]							75 ± 4	51 ± 3	93 ± 4
CC(C)c1oc(-c2ccc(Cl)cc2Cl)nc1CCC(=O)c1cccc(OC(C)(C)C(=O)O)c1 [Example 8-2, 2-[3-[3-[2-(2,4-Dichlorophenyl)-5-isopropyl-4-oxazolyl]propionyl]phenyloxy)-2-methylpropionic acid]				115 to 120					
CC(C)c1oc(-c2ccc3ccccc3c2O)nc1CCC(=O)c1ccc(OC(C)(C)C(=O)O)cc1 [Example 7-9, 2-[4-[3-[2-(1-Hydroxy-2-naphthyl)-5-isopropyl-4-oxazolyl]propionyl]phenyloxy]-2-methylpropionic acid]	8	5 ± 1	80 ± 5						
CC(C)c1oc(-c2ccc(-c3ccccc3)cc2Cl)nc1CCC(=O)c1ccc(OC(C)(C)C(=O)O)cc1 [Example 7-14, 2-[4-[3-[2-(3-Chloro-4-biphenylyl)-5-isopropyl-4-oxazolyl]propionyl]phenyloxy]-2-methylpropionic acid]	2	18	53						
CC(C)c1oc(-c2ccccc2Cl)nc1CCC(O)c1ccc(OC(C)(C)C(=O)O)cc1 (centres unmarked) [Example 4, 2-[4-[3-[2-(2-Chlorophenyl)-5-isopropyl-4-oxazolyl]-1-hydroxypropyl]phenyloxy]-2-methylpropionic acid]							35	26	23
CC(C)c1oc(-c2ccc(Br)cc2Cl)nc1CCC(=O)c1ccc(OC(C)(C)C(=O)O)cc1 [Example 7-13, 2-[4-[3-[2-(4-Bromo-2-chlorophenyl)-5-isopropyl-4-oxazolyl]propionyl]phenyloxy]-2-methylpropionic acid]	1	3	81						
